Data from patent US4820694A, “Modifications of 3-O-demethylmycinose in macrocin and lactenocin” (priority 1986, dated 1989).
Values after ≈ are worked out from the molar mass of the structure shown. Where two headings read alike, the source gives them in different places.

How the values were obtained:
[1] = test system: Streptococcus pneumoniae Park I; experiment: microbe, parasite or virus in culture; assay type: cell-based; settings: Streptococcus pneumoniae
Protocol: (§1) The MIC's in Table III were determined by standard agar-dilution assays. The MIC's in Table IV were obtained using conventional brothdilution microtiter tests.

[2] = test system: Staphylococcus aureus S13E; experiment: microbe, parasite or virus in culture; assay type: cell-based; settings: Staphylococcus aureus, S13E
Protocol: as §1

[3] = test system: Streptococcus pyogenes C203; experiment: protection of mice experimentally infected with S. pyogenes C203; assay type: in vivo
Protocol: The formula 1 compounds have shown in vivo antimicrobial activity against experimentally-induced infections in laboratory animals. When two doses of test compound were administered to mice experimentally infected with S. pyrogenes C203, the activity observed was measured as an ED50 value [effective dose in mg/kg to protect 50% of the test animals: see Warren Wick, et al., J. Bacteriol. 81, 233-235 (1961)].
^a mg/kg × 2; doses given 1 and 4 hours postinfection

[4] = test system: Pasteurella multocida 68C; experiment: broth-dilution microtiter MIC test; assay type: cell-based; settings: Pasteurella multocida, 68C
Protocol: as §1

[5] = test system: Pasteurella multocida 17E; experiment: broth-dilution microtiter MIC test; assay type: cell-based; settings: Pasteurella multocida, 17E
Protocol: as §1

[6] = test system: Mycoplasma gallisepticum 29C; experiment: broth-dilution microtiter MIC test; assay type: cell-based; settings: Mycoplasmoides gallisepticum, 29C
Protocol: as §1

[7] = test system: Pasteurella hemolytica 22C; experiment: broth-dilution microtiter MIC test; assay type: cell-based; settings: Pasteurella, 22C
Protocol: as §1

[8] = test system: Pasteurella multocida 22A; experiment: broth-dilution microtiter MIC test; assay type: cell-based; settings: Pasteurella multocida, 22A
Protocol: as §1

[9] = test system: Mycoplasma gallisepticum 36H; experiment: broth-dilution microtiter MIC test; assay type: cell-based; settings: Mycoplasmoides gallisepticum, 36H
Protocol: as §1

[10] = test system: Bordetella bronchiseptica; experiment: broth-dilution microtiter MIC test; assay type: cell-based; settings: Bordetella bronchiseptica
Protocol: as §1

[11] = test system: Pasteurella hemolytica 23C; experiment: broth-dilution microtiter MIC test; assay type: cell-based; settings: Pasteurella, 23C
Protocol: as §1

[12] = test system: Staphylococcus aureus 19C; experiment: broth-dilution microtiter MIC test; assay type: cell-based; settings: Staphylococcus aureus, 19C
Protocol: as §1

[13] = test system: Pasteurella hemolytica 41D; experiment: broth-dilution microtiter MIC test; assay type: cell-based; settings: Pasteurella, 41D
Protocol: as §1

[14] = test system: Mycoplasma hyorhinis 29E; experiment: broth-dilution microtiter MIC test; assay type: cell-based; settings: Mycoplasma, 29E
Protocol: as §1

[15] = test system: Pasteurella multocida 60A; experiment: broth-dilution microtiter MIC test; assay type: cell-based; settings: Pasteurella multocida, 60A
Protocol: as §1

[16] = test system: Mycoplasma synoviae 40A; experiment: broth-dilution microtiter MIC test; assay type: cell-based; settings: Mycoplasmopsis synoviae, 40A
Protocol: as §1

[17] = test system: Streptococcus sp. 19F; experiment: broth-dilution microtiter MIC test; assay type: cell-based; settings: Streptococcus, SP.19F
Protocol: as §1

[18] = test system: Mycoplasma gallisepticum 15E; experiment: broth-dilution microtiter MIC test; assay type: cell-based; settings: Mycoplasmoides gallisepticum, 15E
Protocol: as §1

[19] = test system: Pasteurella multocida 40G; experiment: broth-dilution microtiter MIC test; assay type: cell-based; settings: Pasteurella multocida, 40G
Protocol: as §1

[20] = test system: Staphylococcus aureus V41; experiment: standard agar-dilution MIC assay; assay type: cell-based; settings: Staphylococcus aureus, V41
Protocol: as §1

[21] = test system: Haemophilus influenzae 76; experiment: standard agar-dilution MIC assay; assay type: cell-based; settings: Haemophilus influenzae, 76
Protocol: as §1

[22] = test system: Staphylococcus aureus X400; experiment: standard agar-dilution MIC assay; assay type: cell-based; settings: Staphylococcus aureus, X400
Protocol: as §1

[23] = test system: Staphylococcus aureus X1.1; experiment: standard agar-dilution MIC assay; assay type: cell-based; settings: Staphylococcus aureus, X1.1
Protocol: as §1

[24] = test system: Haemophilus influenzae C.L.; experiment: standard agar-dilution MIC assay; assay type: cell-based; settings: Haemophilus influenzae
Protocol: as §1

[25] = test system: Streptococcus Group D X66; experiment: standard agar-dilution MIC assay; assay type: cell-based; settings: read-out: MIC
Protocol: as §1

[26] = test system: Pseudomonas aeruginosa X239; experiment: standard agar-dilution MIC assay; assay type: cell-based; settings: Pseudomonas aeruginosa, X239
Protocol: as §1

[27] = test system: Streptococcus pyogenes C203; experiment: standard agar-dilution MIC assay; assay type: cell-based; settings: Streptococcus pyogenes, C203
Protocol: as §1

[28] = test system: Streptococcus Group D 9960; experiment: standard agar-dilution MIC assay; assay type: cell-based; settings: GROUPD9960, read-out: MIC
Protocol: as §1

[29] = test system: Staphylococcus epidermidis 222; experiment: standard agar-dilution MIC assay; assay type: cell-based; settings: Staphylococcus epidermidis, 222
Protocol: as §1

[30] = test system: Escherichia coli EC14; experiment: standard agar-dilution MIC assay; assay type: cell-based
Protocol: as §1

[31] = test system: Staphylococcus epidermidis EPI1; experiment: standard agar-dilution MIC assay; assay type: cell-based; settings: Staphylococcus epidermidis, EPI1
Protocol: as §1

[32] = test system: Klebsiella pneumoniae X68; experiment: standard agar-dilution MIC assay; assay type: cell-based; settings: Klebsiella pneumoniae, X68
Protocol: as §1

Structure (SMILES)	MIC [1] [µg/mL]	MIC [2] [µg/mL]	MIC [4] [µg/mL]	MIC [5] [µg/mL]	MIC [6] [µg/mL]	MIC [7] [µg/mL]	MIC [8] [µg/mL]	MIC [9] [µg/mL]	MIC [11] [µg/mL]	MIC [12] [µg/mL]	MIC [13] [µg/mL]	MIC [14] [µg/mL]	MIC [15] [µg/mL]	MIC [16] [µg/mL]	MIC [17] [µg/mL]	MIC [18] [µg/mL]	MIC [19] [µg/mL]	MIC [20] [µg/mL]	MIC [21] [µg/mL]	MIC [22] [µg/mL]	further results
CCC1OC(=O)CC(O)C(C)C(OC2OC(C)C(O)C(N(C)C)C2O)C(CC=O)CC(C)C(=O)C=CC(C)=CC1COC1OC(C)C(OC(=O)COc2ccccc2)C(OC(=O)COc2ccccc2)C1OC (stereo not drawn) [Compound 36, 3",4"-Di-O-phenoxyacetyl-lactenocin]	1 (≈ 0.974 µM)	2 (≈ 1.95 µM)	25 (≈ 24.4 µM)	50 (≈ 48.7 µM)	0.39 (≈ 0.38 µM)	50 (≈ 48.7 µM)	50 (≈ 48.7 µM)	12.5 (≈ 12.2 µM)	25 (≈ 24.4 µM)	1.56 (≈ 1.52 µM)	25 (≈ 24.4 µM)	6.25 (≈ 6.09 µM)	50 (≈ 48.7 µM)	1.56 (≈ 1.52 µM)	0.78 (≈ 0.76 µM)	12.5 (≈ 12.2 µM)	50 (≈ 48.7 µM)	2 (≈ 1.95 µM)	32 (≈ 31.2 µM)	2 (≈ 1.95 µM)	ED50 ([3]; C203, Oral, mice, mg/kg × 2, doses given 1 and 4 hours postinfection, read-out: ED50): > 100 mg/kg; ED50 ([3]; C203, sc, Subcutaneous, mice, mg/kg × 2, doses given 1 and 4 hours postinfection, read-out: ED50): 4.3 mg/kg; MIC ([10]; broth-dilution microtiter, read-out: MIC): > 50 µg/mL; MIC [23]: 2 µg/mL (≈ 1.95 µM); MIC [24]: 32 µg/mL (≈ 31.2 µM); MIC [25]: 2 µg/mL (≈ 1.95 µM); MIC ([26]; agar-dilution, read-out: MIC): > 128 µg/mL; MIC [27]: 0.5 µg/mL (≈ 0.487 µM); MIC [28]: 2 µg/mL (≈ 1.95 µM); MIC [29]: 0.5 µg/mL (≈ 0.487 µM); MIC ([30]; agar-dilution, read-out: MIC): > 128 µg/mL; MIC [31]: 2 µg/mL (≈ 1.95 µM); MIC ([32]; agar-dilution, read-out: MIC): > 128 µg/mL
CCC1OC(=O)CC(O)C(C)C(OC2OC(C)C(O)C(N(C)C)C2O)C(CC=O)CC(C)C(=O)C=CC(C)=CC1COC1OC(C)C(OC(=O)Cc2ccccc2)C(O)C1OC (stereo not drawn) [Compound 30, 4"-O-Phenylacetyl-lactenocin]	0.5 (≈ 0.571 µM)	0.5 (≈ 0.571 µM)	12.5 (≈ 14.3 µM)	25 (≈ 28.5 µM)	0.39 (≈ 0.445 µM)	50 (≈ 57.1 µM)	25 (≈ 28.5 µM)	25 (≈ 28.5 µM)	25 (≈ 28.5 µM)	6.25 (≈ 7.13 µM)	50 (≈ 57.1 µM)	1.56 (≈ 1.78 µM)	25 (≈ 28.5 µM)	1.56 (≈ 1.78 µM)	1.56 (≈ 1.78 µM)	12.5 (≈ 14.3 µM)	25 (≈ 28.5 µM)	0.5 (≈ 0.571 µM)	8 (≈ 9.13 µM)	1 (≈ 1.14 µM)	MIC [10]: > 50 µg/mL; MIC [23]: 0.5 µg/mL (≈ 0.571 µM); MIC [24]: 8 µg/mL (≈ 9.13 µM); MIC [25]: 0.5 µg/mL (≈ 0.571 µM); MIC [26]: > 128 µg/mL; MIC [27]: 0.25 µg/mL (≈ 0.285 µM); MIC [28]: 1 µg/mL (≈ 1.14 µM); MIC [29]: 0.25 µg/mL (≈ 0.285 µM); MIC [30]: > 128 µg/mL; MIC [31]: 0.5 µg/mL (≈ 0.571 µM); MIC [32]: > 128 µg/mL
CCC1OC(=O)CC(O)C(C)C(OC2OC(C)C(O)C(N(C)C)C2O)C(CC=O)CC(C)C(=O)C=CC(C)=CC1COC1OC(C)C(O)C(OC(=O)Cc2ccccc2)C1OC (stereo not drawn) [Compound 32, 3"-O-Phenylacetyl-lactenocin]	0.5 (≈ 0.571 µM)	1 (≈ 1.14 µM)	12.5 (≈ 14.3 µM)	25 (≈ 28.5 µM)	0.195 (≈ 0.223 µM)	25 (≈ 28.5 µM)	25 (≈ 28.5 µM)	25 (≈ 28.5 µM)	25 (≈ 28.5 µM)	1.56 (≈ 1.78 µM)	25 (≈ 28.5 µM)	1.56 (≈ 1.78 µM)	25 (≈ 28.5 µM)	1.56 (≈ 1.78 µM)	1.56 (≈ 1.78 µM)	12.5 (≈ 14.3 µM)	25 (≈ 28.5 µM)	1 (≈ 1.14 µM)	8 (≈ 9.13 µM)	2 (≈ 2.28 µM)	ED50 ([3]; C203, sc): 4.4 mg/kg; MIC [10]: > 50 µg/mL; MIC [23]: 0.5 µg/mL (≈ 0.571 µM); MIC [24]: 8 µg/mL (≈ 9.13 µM); MIC [25]: 1 µg/mL (≈ 1.14 µM); MIC [26]: > 128 µg/mL; MIC [27]: 0.25 µg/mL (≈ 0.285 µM); MIC [28]: 1 µg/mL (≈ 1.14 µM); MIC [29]: 0.25 µg/mL (≈ 0.285 µM); MIC [30]: > 128 µg/mL; MIC [31]: 0.5 µg/mL (≈ 0.571 µM); MIC [32]: > 128 µg/mL
